According to publication PMC6222861, “Be Aware of Aggregators in the Search for Potential Human ecto-5′-Nucleotidase Inhibitors” (Molecules : A Journal of Synthetic Chemistry and Natural …, 2018):
In brackets after ≈: the same amount, converted by molar mass.

Columns and labels:
human ecto-5′-NT [1] = biological target: T1, human ecto-5′-NT (Homo sapiens, UniProt P21589); test: Enzyme inhibition assay (without Triton X-100), malachite green method; format: biochemical; settings: human ecto-5′-NT 3.6 nM; for IC50: AMP 500 µM, without Triton X-100, HEPES pH 7.4; for Hill slope: concentration-inhibition curve, without Triton X-100
T1 construct: purchased OriGene Technologies, Inc (Rockville, MD, USA)
T1 sequence (P21589 27-574): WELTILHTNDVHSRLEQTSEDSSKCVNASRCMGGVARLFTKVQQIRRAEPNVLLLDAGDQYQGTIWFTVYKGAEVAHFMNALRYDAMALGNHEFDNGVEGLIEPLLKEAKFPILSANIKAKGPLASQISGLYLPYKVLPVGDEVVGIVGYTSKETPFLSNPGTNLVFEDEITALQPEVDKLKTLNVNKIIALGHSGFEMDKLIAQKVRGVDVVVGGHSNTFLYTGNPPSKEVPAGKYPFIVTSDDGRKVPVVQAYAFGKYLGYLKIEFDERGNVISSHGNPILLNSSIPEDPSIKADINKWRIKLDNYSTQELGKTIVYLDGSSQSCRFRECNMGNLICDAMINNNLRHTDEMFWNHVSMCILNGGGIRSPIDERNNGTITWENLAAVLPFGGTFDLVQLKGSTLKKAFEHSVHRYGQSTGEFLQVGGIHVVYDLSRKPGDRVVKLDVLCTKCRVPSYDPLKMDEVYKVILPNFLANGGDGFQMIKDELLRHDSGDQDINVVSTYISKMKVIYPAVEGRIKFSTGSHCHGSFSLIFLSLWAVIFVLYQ
Description: (§1) Enzyme inhibition assays (without Triton X-100). Following procedures described in the literature, with some modifications, all assays were carried out in a reaction mixture containing HEPES buffer (10 mM; pH = 7.4), MgCl2 (2 mM), CaCl2 (1 mM), human ecto-5′-NT (3.6 nM), AMP (500 µM) as substrate and variable concentration of each tested compound (from 0 to 500 µM for A and from 0 to 100 µM for B, C and D). Stock solutions of each compound were prepared in DMSO. The final concentration of DMSO in all samples/assays/experiments was 1.0% (v/v). Results were controlled for the effect of DMSO on enzymatic activity. After incubation for 10 min at 37.0 ± 0.2 °C, the reactions were stopped by heating the system for 5 min at 99.0 ± 0.2 °C. Inorganic phosphate concentrations were quantified spectrophotometrically (at λ = 630 nm), using the malachite green method, as described in the literature. Each experiment was done in triplicate. A four-parameter logistic non-linear regression model was used to fit the experimental data, using GraphPad Prism 7.0 (GraphPad, San Diego, CA, USA). From the corresponding fitted curves, we obtained the IC50 values, except when the minimum plateau value from the dose-response curve was far from zero. For such curves, IC50 ranges were estimated based on the inhibition (%) achieved at the maximum tested concentration.

human ecto-5′-NT [2] = biological target: T1, human ecto-5′-NT; test: Non-ionic detergent-sensitivity evaluation: enzyme inhibition assay with 0.01% (v/v) Triton X-100; format: biochemical; settings: human ecto-5′-NT 3.6 nM, AMP 500 µM, read-out: IC50 in the presence of 0.01% (v/v) Triton X-100
Description: as §1
(i) Non-ionic detergent-sensitivity evaluation: For each compound (A, B, C and D), enzyme inhibition assays were done, similarly as described above, using however Triton X-100 (a non-ionic detergent) at a final concentration of 0.01% (v/v) in the reaction mixture.

human ecto-5′-NT [3] = biological target: T1, human ecto-5′-NT; test: Enzyme concentration sensitivity evaluation: enzyme inhibition assay at 36 nM enzyme; format: biochemical; settings: human ecto-5′-NT 36 nM (10-fold increase), AMP 500 µM
Description: as §1
(ii) Enzyme concentration sensitivity evaluation: For each compound (A, B, C and D), enzyme inhibition assays were done, similarly as described above, but using human ecto-5′-NT at 36 nM (increased by 10-fold).

[4] = Turbidimetric solubility assay; format: physicochemical; settings: HEPES buffer with MgCl2 and CaCl2, aqueous buffer, kinetic from dmso stock; HEPES buffer 10 mM pH 7.4, MgCl2 2 mM, CaCl2 1 mM, 1.0% (v/v) DMSO; turbidity at 400 nm; read-out: Estimated Solubility
Description: The final DMSO concentration in each sample was 1.0% (v/v). Increased turbidity (light scattering) was measured at 400 nm, since all compounds have absorbance peaks below this wavelength. Each sample was prepared and measured in triplicate. All measurements were done using a Hitachi U-2010 spectrophotometer.

[5] = Turbidity at 400 nm as a function of time; format: physicochemical; settings: A 500 µM, B 100 µM, D 250 µM; HEPES buffer pH 7.4, 1.0% (v/v) DMSO; precipitates seen after 60 min
Description: Additionally, turbidity at 400 nm as a function of time was followed for compounds A–D (Figure 6a). The concentration of each compound in these assays was near to the maximum that could be obtained, so that DMSO concentration was kept at 1.0% (v/v) in the assay buffer. […] In fact, after 60 min, precipitates at the bottom of the cuvettes were clearly observed by visual inspection (data not shown).
Figure 6 (a) Turbidity at 400 nm as a function of time measured for compounds A, B, C and D (at 500 µM, 100 µM, 80 µM and 250 µM, respectively). Each solution was prepared in HEPES buffer (10 mM), containing MgCl2 (2 mM) and CaCl2 (1 mM), pH = 7.4. Final concentration of DMSO in each sample was 1.0% (v/v); (b) Mean diameter (D) values as a function of time for compound C (80 µM) as determined by DLS. A solution of C was prepared in HEPES buffer (10 mM), containing MgCl2 (2 mM) and CaCl2 (1 mM), pH = 7.4. Final concentration of DMSO in each sample was 1.0% (v/v).
Turbidimetric assays were done using a Hitachi U-2010 spectrophotometer (Hitachi, Chiyoda, Tokyo, Japan). DLS analysis was done using a Zeta Plus Zeta-Potential Analyzer (Brookshaven Instruments Corporation, Hotsville, NY, USA) equipped with a 570 nm laser for dynamic light scattering at 90°. For enzymatic assays, absorbance measurements were done using a FlexStation 3 Multi-Mode Microplate Reader (Molecular Devices, LLC, San Jose, CA, USA).

[6] = Dynamic light scattering (DLS), aggregation kinetics; format: physicochemical; settings: 80 µM, HEPES buffer pH 7.4, 1.0% (v/v) DMSO
Description: (iv) Dynamic light scattering (DLS): Particle size (mean zeta-average diameter D) for compound C was determined using a Zeta Plus Zeta-Potential Analyzer (Brookshaven Instruments Corporation, Hotsville, NY, USA) equipped with a 570 nm laser for dynamic light scattering at 90° [63]. Solutions of Compound C (80 µM) were prepared in HEPES buffer (10 mM), pH = 7.4. The final concentration of DMSO in each sample was 1.0% (v/v).

| IC50 (human ecto-5′-NT [1]) | IC50 (human ecto-5′-NT [2]) | IC50 (human ecto-5′-NT [3]) | solubility [4] | Hill slope (human ecto-5′-NT [1]) | Structure (SMILES) | Turbidity at 400 nm as a function of time [5] | Aggregate particle size (mean diameter) as a function of time by DLS [6] |
| --- | --- | --- | --- | --- | --- | --- | --- |
| 29.7 ± 1.2 µM | 31.7 ± 1.2 µM | 27.2 ± 1.1 µM | – | – | Nc1ncnc2c1ncn2[C@@H]1O[C@H](COP(=O)(O)OP(=O)(O)O)[C@@H](O)[C@H]1O [ADP, adenosine diphosphate, reference compound] | – | – |
| 82.9 ± 1.1 µM | > 500 µM | – | 79.1 µM (≈ 26.2 µg/mL) | −2.75 | O=C(COC(=O)c1n[nH]c2ccccc12)Nc1c(F)cccc1F [Compound A, [(2,6-difluorophenyl)carbamoyl]methyl 1H-indazole-3-carboxylate] | a decrease in turbidity is observed as a function of time | – |
| 2.2 ± 1.2 µM | > 36 µM | > 36 µM | < 0.5 µM | – | CS(=O)(=O)c1ccc2nc(NC(=O)c3cc(-c4ccccc4O)[nH]n3)sc2c1 [Compound D, 5-(2-hydroxyphenyl)-N-(6-methanesulfonyl-1,3-benzothiazol-2-yl)-1H-pyrazole-3-carboxamide] | a decrease in turbidity is observed as a function of time | – |

Continued, compound first:

| Structure (SMILES) | IC50 (human ecto-5′-NT [1]) | IC50 (human ecto-5′-NT [2]) | IC50 (human ecto-5′-NT [3]) | solubility [4] | Hill slope (human ecto-5′-NT [1]) | Turbidity at 400 nm as a function of time [5] | Aggregate particle size (mean diameter) as a function of time by DLS [6] |
| --- | --- | --- | --- | --- | --- | --- | --- |
| CSc1nnc(NC(=O)c2cc(-c3cc(C)cc(C)c3O)n[nH]2)s1 [Compound C, 3-(2-hydroxy-3,5-dimethylphenyl)-N-[5-(methylsulfanyl)-1,3,4-thiadiazol-2-yl]-1H-pyrazole-5-carboxamide] | 16.3 ± 1.1 µM | > 100 µM | – | 11.7 µM (≈ 4.23 µg/mL) | −3.19 | – | aggregate particle size slowly increased with time |
| O=C(Nc1nc2ccc(F)cc2s1)c1cc(-c2ccccc2O)n[nH]1 [B, N-(6-fluoro-1,3-benzothiazol-2-yl)-3-(2-hydroxyphenyl)-1H-pyrazole-5-carboxamide] | 1.9 ± 1 µM | 2.3 ± 1.2 µM | > 36 µM | 8.8 µM (≈ 3.12 µg/mL) | −2.90 | a decrease in turbidity is observed as a function of time | – |
